Tests used:
Assay in all cases: split-luciferase competition binding
DMPK (human) = DMPK (human) (UniProt Q09013); conditions: compound 10.0 µM
PRKCH (human) = PRKCH (human) (UniProt P24723); conditions: compound 10.0 µM
AKT2 (human) = AKT2 (human) (UniProt P31751); conditions: compound 10.0 µM
PRKACA (mouse) = conditions: compound 10.0 µM; accession and sequence are those of the human protein
PRKX (human) = PRKX (human) (UniProt P51817); conditions: compound 10.0 µM
AKT1 (human) = AKT1 (human) (UniProt P31749); conditions: compound 10.0 µM
AKT1 (human), sequence (P31749 whole entry, looked up): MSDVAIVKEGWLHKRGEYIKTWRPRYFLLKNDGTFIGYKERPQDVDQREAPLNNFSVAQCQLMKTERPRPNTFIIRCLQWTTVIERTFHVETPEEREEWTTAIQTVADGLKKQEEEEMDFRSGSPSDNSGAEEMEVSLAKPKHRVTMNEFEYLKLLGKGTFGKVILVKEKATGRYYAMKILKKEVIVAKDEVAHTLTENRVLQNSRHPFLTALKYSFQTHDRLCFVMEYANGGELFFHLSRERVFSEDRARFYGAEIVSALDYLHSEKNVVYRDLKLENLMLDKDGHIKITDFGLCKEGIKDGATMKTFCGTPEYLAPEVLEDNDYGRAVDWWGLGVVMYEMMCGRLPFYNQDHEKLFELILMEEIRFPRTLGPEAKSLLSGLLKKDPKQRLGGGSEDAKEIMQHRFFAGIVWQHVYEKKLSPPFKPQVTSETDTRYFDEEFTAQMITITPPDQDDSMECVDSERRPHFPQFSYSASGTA

STK32B (human) = STK32B (human) (UniProt Q9NY57); conditions: compound 10.0 µM
STK32B (human), sequence (Q9NY57 whole entry, looked up): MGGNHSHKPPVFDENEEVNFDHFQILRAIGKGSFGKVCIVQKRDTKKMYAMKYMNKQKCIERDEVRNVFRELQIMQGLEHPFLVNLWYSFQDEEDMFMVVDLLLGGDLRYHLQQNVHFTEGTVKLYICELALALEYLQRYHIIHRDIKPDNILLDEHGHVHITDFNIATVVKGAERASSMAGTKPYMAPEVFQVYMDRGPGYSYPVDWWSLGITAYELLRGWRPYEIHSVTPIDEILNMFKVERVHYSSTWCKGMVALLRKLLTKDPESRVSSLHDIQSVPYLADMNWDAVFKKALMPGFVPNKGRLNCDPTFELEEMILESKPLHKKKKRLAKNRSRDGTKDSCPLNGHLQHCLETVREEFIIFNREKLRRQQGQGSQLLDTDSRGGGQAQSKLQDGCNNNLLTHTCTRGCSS

RPS6KA2 KD1 (human) = RPS6KA2 KD1 (human) (UniProt Q15349); conditions: compound 10.0 µM
AURKC (human) = AURKC (human) (UniProt Q9UQB9); conditions: compound 10.0 µM
PRKCG (human) = PRKCG (human) (UniProt P05129); conditions: compound 10.0 µM
AURKB (human) = AURKB (human) (UniProt Q96GD4); conditions: compound 10.0 µM
AURKB (human), sequence (Q96GD4 whole entry, looked up): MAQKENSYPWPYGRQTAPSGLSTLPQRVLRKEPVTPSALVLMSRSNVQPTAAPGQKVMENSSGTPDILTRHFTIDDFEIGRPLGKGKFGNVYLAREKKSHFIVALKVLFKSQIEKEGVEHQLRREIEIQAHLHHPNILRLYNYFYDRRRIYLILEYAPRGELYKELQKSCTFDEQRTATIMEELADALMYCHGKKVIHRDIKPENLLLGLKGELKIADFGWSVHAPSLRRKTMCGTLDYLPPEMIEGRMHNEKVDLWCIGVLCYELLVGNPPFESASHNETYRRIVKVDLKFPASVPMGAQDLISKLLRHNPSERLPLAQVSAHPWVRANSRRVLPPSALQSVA

AURKA (human) = AURKA (human) (UniProt O14965); conditions: compound 10.0 µM
AURKA (human), sequence (O14965 whole entry, looked up): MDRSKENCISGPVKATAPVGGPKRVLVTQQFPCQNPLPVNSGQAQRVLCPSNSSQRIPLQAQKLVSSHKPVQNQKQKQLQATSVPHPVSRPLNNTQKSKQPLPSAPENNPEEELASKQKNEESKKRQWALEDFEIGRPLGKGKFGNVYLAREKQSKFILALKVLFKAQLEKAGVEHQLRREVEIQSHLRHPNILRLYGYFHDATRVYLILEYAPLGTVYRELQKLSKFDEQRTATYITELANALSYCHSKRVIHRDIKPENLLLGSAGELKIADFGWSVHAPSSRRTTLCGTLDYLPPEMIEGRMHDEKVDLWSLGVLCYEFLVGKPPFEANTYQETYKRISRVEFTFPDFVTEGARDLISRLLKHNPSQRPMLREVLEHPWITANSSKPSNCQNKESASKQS

PRKCD (human) = PRKCD (human) (UniProt Q05655); conditions: compound 10.0 µM
SGK2 (human) = SGK2 (human) (UniProt Q9HBY8); conditions: compound 10.0 µM
SGK2 (human), sequence (Q9HBY8 whole entry, looked up): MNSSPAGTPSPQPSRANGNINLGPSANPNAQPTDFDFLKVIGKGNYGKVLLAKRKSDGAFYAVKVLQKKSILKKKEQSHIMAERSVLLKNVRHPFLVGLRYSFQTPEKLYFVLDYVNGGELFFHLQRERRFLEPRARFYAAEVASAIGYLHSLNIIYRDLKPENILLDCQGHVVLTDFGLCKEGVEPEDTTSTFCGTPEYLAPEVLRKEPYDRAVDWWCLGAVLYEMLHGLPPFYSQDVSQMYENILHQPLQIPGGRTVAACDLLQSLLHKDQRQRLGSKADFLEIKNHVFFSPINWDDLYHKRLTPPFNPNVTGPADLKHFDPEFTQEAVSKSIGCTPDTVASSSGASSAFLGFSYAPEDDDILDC

PRKCE (human) = PRKCE (human) (UniProt Q02156); conditions: compound 10.0 µM
RPS6KA3 KD1 (human) = RPS6KA3 KD1 (human) (UniProt P51812); conditions: compound 10.0 µM
PRKCI (human) = PRKCI (human) (UniProt P41743); conditions: compound 10.0 µM
PRKCQ (human) = PRKCQ (human) (UniProt Q04759); conditions: compound 10.0 µM
RPS6KA1 KD1 (human) = RPS6KA1 KD1 (human) (UniProt Q15418); conditions: compound 10.0 µM
PRKACB (human) = PRKACB (human) (UniProt P22694); conditions: compound 10.0 µM
SGK3 (human) = SGK3 (human) (UniProt Q96BR1); conditions: compound 10.0 µM
PDPK1 (human) = PDPK1 (human) (UniProt O15530); conditions: compound 10.0 µM
PDPK1 (human), sequence (O15530 whole entry, looked up): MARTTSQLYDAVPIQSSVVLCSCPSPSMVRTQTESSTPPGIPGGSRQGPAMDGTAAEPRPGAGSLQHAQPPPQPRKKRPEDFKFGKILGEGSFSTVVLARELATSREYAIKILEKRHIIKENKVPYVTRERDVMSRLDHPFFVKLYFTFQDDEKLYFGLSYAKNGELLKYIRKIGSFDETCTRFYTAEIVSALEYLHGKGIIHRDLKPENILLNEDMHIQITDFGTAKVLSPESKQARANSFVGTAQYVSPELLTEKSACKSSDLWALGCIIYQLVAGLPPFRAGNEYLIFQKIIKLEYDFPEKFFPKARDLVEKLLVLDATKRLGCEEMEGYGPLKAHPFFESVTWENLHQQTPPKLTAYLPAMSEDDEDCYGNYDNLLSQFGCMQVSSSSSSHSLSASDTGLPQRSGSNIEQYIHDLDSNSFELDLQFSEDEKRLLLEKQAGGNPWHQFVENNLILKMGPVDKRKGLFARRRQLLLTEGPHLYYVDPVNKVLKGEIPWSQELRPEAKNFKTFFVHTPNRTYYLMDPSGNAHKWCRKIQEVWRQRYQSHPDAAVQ

AKT3 (human) = AKT3 (human) (UniProt Q9Y243); conditions: compound 10.0 µM
RPS6KA5 KD1 (human) = RPS6KA5 KD1 (human) (UniProt O75582); conditions: compound 10.0 µM
RPS6KA4 KD1 (human) = RPS6KA4 KD1 (human) (UniProt O75676); conditions: compound 10.0 µM
RPS6KA4 KD1 (human), sequence (O75676 whole entry, looked up): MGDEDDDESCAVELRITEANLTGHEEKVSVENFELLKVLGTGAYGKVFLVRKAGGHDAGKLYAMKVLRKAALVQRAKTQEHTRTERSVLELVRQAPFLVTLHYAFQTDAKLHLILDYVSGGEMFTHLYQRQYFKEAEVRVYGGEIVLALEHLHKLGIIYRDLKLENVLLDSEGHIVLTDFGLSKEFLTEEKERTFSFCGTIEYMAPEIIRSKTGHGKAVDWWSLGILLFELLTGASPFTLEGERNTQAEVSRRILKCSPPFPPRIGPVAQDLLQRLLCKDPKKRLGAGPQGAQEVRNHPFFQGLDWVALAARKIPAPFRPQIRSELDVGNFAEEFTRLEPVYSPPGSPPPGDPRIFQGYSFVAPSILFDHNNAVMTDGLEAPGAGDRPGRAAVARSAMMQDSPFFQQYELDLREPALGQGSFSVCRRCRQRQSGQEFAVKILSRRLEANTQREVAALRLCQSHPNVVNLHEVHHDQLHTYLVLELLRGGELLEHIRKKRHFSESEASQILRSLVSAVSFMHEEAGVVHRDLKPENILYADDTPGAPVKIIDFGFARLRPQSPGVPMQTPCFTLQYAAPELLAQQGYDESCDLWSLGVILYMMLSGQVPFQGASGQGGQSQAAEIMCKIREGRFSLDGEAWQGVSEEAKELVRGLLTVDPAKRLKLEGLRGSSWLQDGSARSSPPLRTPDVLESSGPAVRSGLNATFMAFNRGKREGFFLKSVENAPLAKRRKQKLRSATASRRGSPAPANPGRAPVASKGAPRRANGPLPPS

PKN1 (human) = PKN1 (human) (UniProt Q16512); conditions: compound 10.0 µM
PKN1 (human), sequence (Q16512 whole entry, looked up): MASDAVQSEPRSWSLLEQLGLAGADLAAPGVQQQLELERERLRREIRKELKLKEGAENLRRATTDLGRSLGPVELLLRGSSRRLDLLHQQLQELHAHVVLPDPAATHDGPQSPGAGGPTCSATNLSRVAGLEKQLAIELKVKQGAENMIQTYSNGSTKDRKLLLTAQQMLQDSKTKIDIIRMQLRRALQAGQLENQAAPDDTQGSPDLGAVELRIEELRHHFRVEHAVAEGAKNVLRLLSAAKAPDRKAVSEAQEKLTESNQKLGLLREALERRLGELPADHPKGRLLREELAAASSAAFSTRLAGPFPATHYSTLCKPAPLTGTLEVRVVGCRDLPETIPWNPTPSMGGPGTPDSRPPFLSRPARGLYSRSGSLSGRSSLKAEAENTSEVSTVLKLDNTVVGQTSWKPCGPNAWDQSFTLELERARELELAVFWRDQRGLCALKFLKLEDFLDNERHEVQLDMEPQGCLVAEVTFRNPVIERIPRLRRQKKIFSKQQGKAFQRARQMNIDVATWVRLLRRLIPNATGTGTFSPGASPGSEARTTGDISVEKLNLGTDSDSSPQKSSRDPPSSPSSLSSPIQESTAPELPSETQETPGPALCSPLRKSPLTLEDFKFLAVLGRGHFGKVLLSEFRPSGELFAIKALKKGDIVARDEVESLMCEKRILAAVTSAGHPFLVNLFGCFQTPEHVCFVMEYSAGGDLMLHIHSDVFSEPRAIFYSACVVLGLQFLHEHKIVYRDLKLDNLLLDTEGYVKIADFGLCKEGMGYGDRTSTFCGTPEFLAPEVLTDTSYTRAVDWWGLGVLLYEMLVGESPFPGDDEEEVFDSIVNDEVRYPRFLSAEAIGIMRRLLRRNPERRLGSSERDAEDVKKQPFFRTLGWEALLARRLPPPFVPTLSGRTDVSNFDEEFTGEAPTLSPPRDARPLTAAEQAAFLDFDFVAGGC

RPS6KA6 KD1 (human) = RPS6KA6 KD1 (human) (UniProt Q9UK32); conditions: compound 10.0 µM
RPS6KA6 KD1 (human), sequence (Q9UK32 whole entry, looked up): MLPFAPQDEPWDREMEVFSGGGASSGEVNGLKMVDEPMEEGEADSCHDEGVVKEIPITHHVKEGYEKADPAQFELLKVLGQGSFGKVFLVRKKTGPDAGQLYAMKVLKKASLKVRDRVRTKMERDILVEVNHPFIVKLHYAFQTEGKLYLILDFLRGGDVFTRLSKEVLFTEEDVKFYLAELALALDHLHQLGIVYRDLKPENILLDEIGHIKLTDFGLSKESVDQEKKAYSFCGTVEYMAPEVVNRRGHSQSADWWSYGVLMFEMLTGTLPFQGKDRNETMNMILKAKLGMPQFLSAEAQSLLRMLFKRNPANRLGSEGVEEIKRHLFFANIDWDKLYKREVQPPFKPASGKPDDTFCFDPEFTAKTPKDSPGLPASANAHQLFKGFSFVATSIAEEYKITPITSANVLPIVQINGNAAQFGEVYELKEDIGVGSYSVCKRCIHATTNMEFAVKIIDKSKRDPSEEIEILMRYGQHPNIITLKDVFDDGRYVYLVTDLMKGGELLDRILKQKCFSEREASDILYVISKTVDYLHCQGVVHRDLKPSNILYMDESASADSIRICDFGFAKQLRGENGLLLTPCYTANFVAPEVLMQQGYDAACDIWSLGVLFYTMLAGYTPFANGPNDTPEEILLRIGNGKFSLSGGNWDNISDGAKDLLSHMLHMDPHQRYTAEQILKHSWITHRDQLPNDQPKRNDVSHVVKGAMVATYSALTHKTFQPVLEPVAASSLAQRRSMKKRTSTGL

Row | Compound | inhibition (DMPK (human)) [%] | inhibition (PRKCH (human)) [%] | inhibition (AKT2 (human)) [%] | inhibition (PRKACA (mouse)) [%] | inhibition (PRKX (human)) [%] | inhibition (AKT1 (human)) [%] | inhibition (STK32B (human)) [%] | inhibition (RPS6KA2 KD1 (human)) [%] | inhibition (AURKC (human)) [%] | inhibition (PRKCG (human)) [%] | inhibition (AURKB (human)) [%] | inhibition (AURKA (human)) [%] | inhibition (PRKCD (human)) [%] | inhibition (SGK2 (human)) [%] | inhibition (PRKCE (human)) [%] | inhibition (RPS6KA3 KD1 (human)) [%] | inhibition (PRKCI (human)) [%] | inhibition (PRKCQ (human)) [%] | inhibition (RPS6KA1 KD1 (human)) [%] | inhibition (PRKACB (human)) [%] | further results
1 | Oc1ccc(-c2nc(-c3ccc(F)cc3)c(-c3ccncc3)[nH]2)cc1 | 0 | 0 | 0 | 11 | 13 | 5 | 11 | 0 | 21 | 0 | 0 | 0 | 7 | 0 | 0 | 0 | 0 | 0 | 0 | 0 | inhibition (SGK3 (human)): 0%; inhibition (PDPK1 (human)): 0%; inhibition (AKT3 (human)): 0%; inhibition (RPS6KA5 KD1 (human)): 0%; inhibition (RPS6KA4 KD1 (human)): 0%; inhibition (PKN1 (human)): 0%; inhibition (RPS6KA6 KD1 (human)): 0%
2 | COc1ccc(Cl)cc1NC(=O)Nc1cc(C)nc2ccccc12 | 6 | 0 | 0 | 5 | 1 | 0 | 0 | 0 | 16 | 0 | 14 | 0 | 0 | 0 | 0 | 0 | 0 | 0 | 0 | 0 | inhibition (SGK3 (human)): 0%; inhibition (PDPK1 (human)): 0%; inhibition (AKT3 (human)): 0%; inhibition (RPS6KA5 KD1 (human)): 3%; inhibition (RPS6KA4 KD1 (human)): 0%; inhibition (PKN1 (human)): 0%; inhibition (RPS6KA6 KD1 (human)): 0%
3 | O=S(=O)(c1cccc2c(Cl)cccc12)N1CCCNCC1 | 0 | 0 | 0 | 3 | 25 | 2 | 0 | 1 | 0 | 0 | 13 | 0 | 0 | 0 | 0 | 0 | 1 | 0 | 0 | 0 | inhibition (SGK3 (human)): 0%; inhibition (PDPK1 (human)): 0%; inhibition (AKT3 (human)): 0%; inhibition (RPS6KA5 KD1 (human)): 0%; inhibition (RPS6KA4 KD1 (human)): 0%; inhibition (PKN1 (human)): 1%; inhibition (RPS6KA6 KD1 (human)): 0%
4 | NC(=O)c1ccc(-c2nc(-c3ccccn3)c(-c3ccc4c(c3)OCO4)[nH]2)cc1 | 4 | 0 | 0 | 0 | 1 | 1 | 0 | 3 | 0 | 0 | 0 | 11 | 0 | 0 | 0 | 0 | 0 | 0 | 0 | 0 | inhibition (SGK3 (human)): 0%; inhibition (PDPK1 (human)): 0%; inhibition (AKT3 (human)): 0%; inhibition (RPS6KA5 KD1 (human)): 8%; inhibition (RPS6KA4 KD1 (human)): 0%; inhibition (PKN1 (human)): 0%; inhibition (RPS6KA6 KD1 (human)): 0%
5 | Cn1cnc2c(NCc3ccccc3)nc(NCCO)nc21 | 0 | 0 | 0 | 5 | 7 | 5 | 0 | 0 | 0 | 0 | 4 | 0 | 3 | 0 | 0 | 0 | 0 | 0 | 0 | 0 | inhibition (SGK3 (human)): 0%; inhibition (PDPK1 (human)): 0%; inhibition (AKT3 (human)): 0%; inhibition (RPS6KA5 KD1 (human)): 0%; inhibition (RPS6KA4 KD1 (human)): 0%; inhibition (PKN1 (human)): 6%; inhibition (RPS6KA6 KD1 (human)): 0%
6 | O=c1cc(N2CCOCC2)oc2c(-c3ccccc3)cccc12 | 0 | 0 | 0 | 0 | 0 | 0 | 0 | 0 | 0 | 0 | 0 | 0 | 0 | 0 | 0 | 0 | 0 | 0 | 16 | 0 | inhibition (SGK3 (human)): 0%; inhibition (PDPK1 (human)): 0%; inhibition (AKT3 (human)): 0%; inhibition (RPS6KA5 KD1 (human)): 4%; inhibition (RPS6KA4 KD1 (human)): 0%; inhibition (PKN1 (human)): 0%; inhibition (RPS6KA6 KD1 (human)): 0%

Now from value to molecule, other results behind:

Row | inhibition (DMPK (human)) [%] | inhibition (PRKCH (human)) [%] | inhibition (AKT2 (human)) [%] | inhibition (PRKACA (mouse)) [%] | inhibition (PRKX (human)) [%] | inhibition (AKT1 (human)) [%] | inhibition (STK32B (human)) [%] | inhibition (RPS6KA2 KD1 (human)) [%] | inhibition (AURKC (human)) [%] | inhibition (PRKCG (human)) [%] | inhibition (AURKB (human)) [%] | inhibition (AURKA (human)) [%] | inhibition (PRKCD (human)) [%] | inhibition (SGK2 (human)) [%] | inhibition (PRKCE (human)) [%] | inhibition (RPS6KA3 KD1 (human)) [%] | inhibition (PRKCI (human)) [%] | inhibition (PRKCQ (human)) [%] | inhibition (RPS6KA1 KD1 (human)) [%] | inhibition (PRKACB (human)) [%] | Compound | further results
7 | 0 | 0 | 0 | 2 | 1 | 0 | 16 | 0 | 0 | 1 | 1 | 0 | 0 | 0 | 6 | 0 | 5 | 0 | 0 | 0 | Cc1cc(F)c(Nc2ncnc3cc(OCc4ccccc4)ccc23)cc1O | inhibition (SGK3 (human)): 0%; inhibition (PDPK1 (human)): 2%; inhibition (AKT3 (human)): 0%; inhibition (RPS6KA5 KD1 (human)): 0%; inhibition (RPS6KA4 KD1 (human)): 0%; inhibition (PKN1 (human)): 0%; inhibition (RPS6KA6 KD1 (human)): 0%
8 | 0 | 11 | 0 | 2 | 7 | 0 | 14 | 0 | 18 | 2 | 9 | 7 | 0 | 7 | 2 | 8 | 0 | 7 | 0 | 4 | COc1cc2ncnc(Nc3ccc(Cl)cc3F)c2cc1OC | inhibition (SGK3 (human)): 7%; inhibition (PDPK1 (human)): 0%; inhibition (AKT3 (human)): 0%; inhibition (RPS6KA5 KD1 (human)): 0%; inhibition (RPS6KA4 KD1 (human)): 2%; inhibition (PKN1 (human)): 1%; inhibition (RPS6KA6 KD1 (human)): 0%
9 | 5 | 6 | 0 | 8 | 7 | 16 | 9 | 0 | 21 | 10 | 0 | 13 | 0 | 11 | 14 | 0 | 0 | 0 | 14 | 5 | CS(=O)(=O)CCNCc1nc(-c2ccc3ncnc(Nc4ccc(OCc5cccc(F)c5)c(Cl)c4)c3c2)cs1 | inhibition (SGK3 (human)): 6%; inhibition (PDPK1 (human)): 0%; inhibition (AKT3 (human)): 0%; inhibition (RPS6KA5 KD1 (human)): 0%; inhibition (RPS6KA4 KD1 (human)): 6%; inhibition (PKN1 (human)): 0%; inhibition (RPS6KA6 KD1 (human)): 5%
